Measurements: US20230355605A1, “DRUG FOR ENHANCING FIBRINOLYTIC SYSTEM, AND USE THEREFOR” (priority 2020, published 2023)

What was measured:
[1] = tested on: mouse model of bleomycin-induced pulmonary fibrosis; assay: Mouse model of bleomycin-induced pulmonary fibrosis; format: in vivo
Procedure: The improvement effect of the present compound on pulmonary fibrosis (remodeling after lung damage) was evaluated using a mouse model of bleomycin-induced pulmonary fibrosis. […] Because of similarity of histopathological changes to pulmonary fibrosis in humans, this mouse model is widely used for the evaluation of the drug efficacy.
To a fibrosis mouse model (fibrosis model group) given a single dose of bleomycin (1.2 mg/mL), the present compound (0.75 mg/kg/day) was orally administered for 21 days (present compound administration group, n = 9), and biochemical analysis of the lungs and measurement of clinical conditions of the lungs were performed on day 22. For comparison, instead of the present compound, the solvent used to dissolve the present compound was administered to a fibrosis model group in the same manner (vehicle group, n = 10), and biochemical analysis and measurement of clinical conditions of the lungs were performed. As a positive control group, a dexamethasone administration group (0.25 mg/kg administration, n = 9) was used. The biochemical analysis was performed using lung hydroxyproline values as an index. The clinical conditions of the lungs were evaluated by performing Masson’s trichrome staining and calculating Ashcroft scores according to a report of Ashcroft et al. (Ashcroft T et al., J Clin Pathol, 1988; 41:467). The clinical conditions were confirmed by comparing a normal mouse group (normal group, n = 10) with the vehicle group (n = 10), and the improvement effect of the present compound on pulmonary fibrosis was evaluated by comparing the vehicle group (n = 10) with the present compound administration group (n = 9). Differences between the mean values of the groups were tested by the Bonferroni selected pairs test using Prism 4 (GraphPad Software).
Table 1 and FIG. 3(A) and FIG. 3(B) show the results of comparisons of the lung hydroxyproline values and the Ashcroft scores in the groups. The mean values of the groups are expressed as mean±SD, and examination was performed at a 5% significance level.

CML patients = settings: according to the NCCN guidelines; cited from earlier work
rats = assay: 4-week repeated oral dose toxicity study in rats; format: in vivo; settings: rats; study details of the similar compound not given
[2] = tested on: cynomolgus monkey model of saphenous arterial thrombus; assay: Cynomolgus monkey model of saphenous arterial thrombus (PIT model); format: in vivo; settings: oral administration to monkeys
Procedure: The thrombus formation inhibitory effect of the present compound was evaluated using a cynomolgus monkey model of saphenous arterial thrombus (PIT model) .
Before the procedure, the present compound suspended in a 0.5% CMC-Na aqueous solution was orally administered to test groups of cynomolgus monkeys at dosages of 0.1, 0.3, 1, and 3 mg/kg. […] A light irradiation probe was placed on a saphenous artery of each cynomolgus monkey to cause thrombus formation by applying green light of 540 nm for 20 minutes at the time of intravenously administering rose bengal (20 mg/kg). A decrease in blood flow due to this thrombus formation was measured with a pulse Doppler blood flowmeter, and the thrombus formation inhibitory effect of the present compound was evaluated by measuring the occlusion time on the first day and the cumulative occlusion time.

[3] = tested on: COVID-19 patients with moderate to severe lung damage; settings: 13 COVID-19 patients, inhaled; cited from earlier work
[4] = day 22, present compound 0.75 mg/kg/day oral 21 days, dexamethasone 0.25 mg/kg, mean±SD

Molecule: C[C@@H]1C[C@H]2[C@@H]3CCC4=CC(=O)C=C[C@]4(C)[C@@]3(F)[C@@H](O)C[C@]2(C)[C@@]1(O)C(=O)CO [Dexamethazone, dexamethasone, reference compound]
- Ashcroft score compared with vehicle group ([1]; 5% significance level): significantly lower
- lung hydroxyproline value compared with vehicle group ([1]; 5% significance level): no significant difference
- Ashcroft score [1, 4]: 2.3±0.1
- Lung hydroxyproline value [1, 4]: 71.0±6.7 µg/left lung

Molecule: Cc1ccc(NC(=O)c2ccc(CN3CCN(C)CC3)cc2)cc1Nc1nccc(-c2cccnc2)n1 [imatinib]
- patients who could maintain DMR for more than 2 years after 3 years of treatment (CML patients): about 5 % of all CML cases

Molecule: O=C(Nc1ccc(Cl)cc1C(=O)O)c1cccc(-c2ccccc2)c1 [similar compound, 2-([biphenyl-3-ylcarbonyl]amino)-5-chlorobenzoic acid, reference compound]
- no-observed-adverse-effect level (rats): 20 mg/kg/day
- minimum effective dosage [2]: 0.3 mg/kg

B1: plasminogen: inhaled plasminogen given to COVID-19 patients in the clinical study by Wu et al. (protein, UniProt P00747 20-810, looked up)
Plasminogen: EPLDDYVNTQGASLFSVTKKQLGAGSIEECAAKCEEDEEFTCRAFQYHSKEQQCVIMAENRKSSIIIRMRDVVLFEKKVYLSECKTGNGKNYRGTMSKTKNGITCQKWSSTSPHRPRFSPATHPSEGLEENYCRNPDNDPQGPWCYTTDPEKRYDYCDILECEEECMHCSGENYDGKISKTMSGLECQAWDSQSPHAHGYIPSKFPNKNLKKNYCRNPDRELRPWCFTTDPNKRWELCDIPRCTTPPPSSGPTYQCLKGTGENYRGNVAVTVSGHTCQHWSAQTPHTHNRTPENFPCKNLDENYCRNPDGKRAPWCHTTNSQVRWEYCKIPSCDSSPVSTEQLAPTAPPELTPVVQDCYHGDGQSYRGTSSTTTTGKKCQSWSSMTPHRHQKTPENYPNAGLTMNYCRNPDADKGPWCFTTDPSVRWEYCNLKKCSGTEASVVAPPPVVLLPDVETPSEEDCMFGNGKGYRGKRATTVTGTPCQDWAAQEPHRHSIFTPETNPRAGLEKNYCRNPDGDVGGPWCYTTNPRKLYDYCDVPQCAAPSFDCGKPQVEPKKCPGRVVGGCVAHPHSWPWQVSLRTRFGMHFCGGTLISPEWVLTAAHCLEKSPRPSSYKVILGAHQEVNLEPHVQEIEVSRLFLEPTRKDIALLKLSSPAVITDKVIPACLPSPNYVVADRTECFITGWGETQGTFGAGLLKEAQLPVIENKVCNRYEFLNGRVQSTELCAGHLAGGTDSCQGDSGGPLVCFEKDKYILQGVTSWGLGCARPNKPGVYVRVSRFVTWIEGVMRNN
- lung damage [3]: rapid improvement in lung damage

B2: plasmin: as printed for NPL 27; probably the inhaled plasminogen of b10 (protein, UniProt P00747 20-810, looked up)
Plasminogen: B1 Plasminogen
- lung damage [3]: improved
